How the values were obtained:
[1] = system: platelet aggregation induced by STA2 in human blood; test: Inhibitory effect on platelet aggregation induced by STA2 in human blood; assay type: cell-based; conditions: platelet aggregation induced by STA2 in human blood (platelet rich plasma, method of Born); read-out: Inhibitory effects on platelet aggregation (IC50)
Source text: For example, in a standard laboratory test, the effects were possible to be confirmed by (i) inhibitory effect on platelet aggregation induced by STA2 (9α, 11α-epithio-15α-hydroxy-11α-carbathromba-5Z,13E-dienoic acid) in human blood, (ii) inhibitory effect on contraction of smooth muscle induced by STA2 in guinea pigs or (iii) inhibitory effect on increasing of blood pressure induced by STA2 in guinea pigs (intravenously and orally).
(i) Inhibitory effect on platelet aggregation induced by STA2 in human blood: Whole blood of healthy human adult was collected with citric acid, and the mixture (20 ml) was centrifuged (180×g) for 10 min. The supernatant obtained was diluted with sufficient platelet poor plasma to obtain plasma which contains 300,000 platelet cells power μl. A solution of tested compound in ethanol (1 μl) was added to the obtained plasma (250 μl), and then a solution of STA2 is ethanol was added to the mixtures. The measurement was carried out followed by the method of Born and then IC50 was calculated.

[2] = system: increasing of blood pressure induced by STA2; test: Inhibitory effect on increasing of blood pressure induced by STA2 in guinea pigs; assay type: in vivo; conditions: 100 μg/kg
Experimental: (iii) Inhibitory effect on increasing of blood pressure induced by STA2 in guinea pigs: A 7% sodium bicarbonate buffer solution (pH 7.6-8.6) of each tested compounds was administered intravenously via carotid vein or orally to a urethane-anaesthetized male guinea pig weighing 250~350 g, at a rate of 10-1000 μg/kg animal body weight. And then guinea pigs were administered intravenously a solution of STA2 in phosphate buffer (pH 7.4). change of the blood pressure was measured at carotid artery and then inhibition ratio (%) was calculated.
(§1) For example, in a standard laboratory test, the effects were possible to be confirmed by (i) inhibitory effect on increasing of blood pressure induced by STA2 in guinea pigs (antagonistic effect) and (ii) stimulatory effect on increasing of blood pressure in guinea pigs (agnostic effect).
(§2) Inhibitory effect on increasing of blood pressure induced by TXA2 in guinea pigs and stimulatory effect on increasing of blood pressure in guinea pigs: A 7% sodium bicarbonate buffer solution (pH 7.6~8.6) of each tested compounds was administered intravenously via carotid vein or orally to a urethane-anaesthetized male guinea pig weighing 250~350 g, at a rate of 100 μg/kg animal body weight. Increasing of blood pressure was measured in guinea pigs administered test compounds intravenously. On the other hand, to guinea pigs administered test compounds orally, then a solution of STA2 in phosphate buffer (pH 7.4) was administered. Change of the blood pressure was measured at carotid artery and then inhibition ratio (%) was calculated.

[3] = system: increasing of blood pressure in guinea pigs; test: Stimulatory effect on increasing of blood pressure in guinea pigs (agonistic effect on TXA2); assay type: in vivo; conditions: 100 μg/kg, i.v. (n = 2~4)
Source text: as §1, §2

SMILES	IC50 [1] [µM]	(i) Duration of more than 50% inhibit increasing of blood pressure induced STA2 pig [2] [min]	(ii) Effect of increasing of blood pressure in guinea pig [3] [mmHg]
Cc1ccc(S(=O)(=O)N[C@@H]2C[C@@H]3C[C@H](C/C=C\CCCC(=O)O)[C@H]2C3)cc1 (relative stereo) [4 (a)]	1.78	–	–
O=C(O)CCC/C=C\[C@H]1[C@@H]2CC[C@@H](C2)[C@@H]1CCNS(=O)(=O)c1ccc(Br)cc1 [1 (u), (5Z)-6-[(1R, 2R, 3S, 4S)-3-[2-[N-(4-bromobenzenesulfonyl)amino]ethyl]bicyclo[2.2.1]heptan-2-yl]hex-5-enoic acid]	1	–	–
Cc1ccc(S(=O)(=O)N[C@H]2[C@H]3CC[C@H](C3)[C@@H]2C/C=C\CCCC(N)=O)cc1	–	> 340	9
O=C(O)CCC/C=C\[C@H]1CCCC[C@@H]1CNS(=O)(=O)c1ccc(Br)cc1 (relative stereo) [1 (t), (5Z)-6-[(1R*, 2S*,)-2-[N-(4-bromobenzenesulfonyl)aminometh-yl]cyclohexan-1-yl]hex-5-enoicacid]	0.52	–	–
Cc1ccc(S(=O)(=O)N[C@H]2[C@H]3CC[C@H](C3)[C@@H]2C/C=C\CCCC(=O)N[C@@H](CCCCN)C(=O)O)cc1 [Example 8, Amide of (5Z)-7-[(1R, 2S, 3S, 4S)-3-tosylaminobicyclo [2.2.1]heptan-2-yl]hept-5-enoic acid and lysine]	–	305	7
Cc1ccc(S(=O)(=O)N[C@H]2[C@H]3CC[C@H](C3)[C@@H]2C/C=C\CCCC(=O)NC(CCC(=O)O)C(=O)O)cc1 (stereo partly drawn) [7 (c), amide of (5Z)-7-[(1R, 2S, 3S, 4S)-3-tosylaminobicyclo[2.2.1]heptan-2-yl]hept-5-enoic acidand glutamic acid]	–	> 290	7
O=C(O)CCC/C=C\[C@H]1[C@@H]2CC[C@@H](C2)[C@@H]1CNS(=O)(=O)c1ccc(Br)cc1 [1 (r), (5Z)-6[(1R, 2R, 3S, 4S)-3-[N-(4-bromobenzenesulfonyl)aminomethyl]bicyclo[2.2.1]heptan-2-yl]hex-5-enoic acid]	0.28	–	–
O=C(O)CCC/C=C\[C@@H]1CCC[C@H](NS(=O)(=O)c2ccc(Br)cc2)C1 (relative stereo) [1 (m), (5Z)-6-[(1R*, 3S*)-3-(4-bromobenzenesulfonylamino)cyclohexyl]hex-5-enoic acid]	0.17	–	–
Cc1ccc(S(=O)(=O)NC[C@H]2CCC[C@@H]2/C=C\CCCC(=O)O)cc1 (relative stereo) [1 (w), (5Z)-6-[(1R, 2S*)-2-[N-tosylaminomethyl]cyclopentan-1-yl]hex-5-enoic acid]	0.68	–	–
O=C(O)CCC/C=C\[C@H]1C[C@@H]2C[C@H]1[C@@H](NS(=O)(=O)c1ccc(Br)cc1)C2 (relative stereo) [1 (c), (5Z)-6-[(1R*, 2R*, 4R*, 6S*)-6-(4-bromobenzenesulfonylamino)bicyclo[2.2.1]heptan-2-yl]hex-5-enoic acid]	1	–	–
O=C(O)CCC/C=C\[C@@H]1CC[C@H](NS(=O)(=O)c2ccc(Br)cc2)C1 [1 (i), (5Z)-6-[(1R, 3S)-3-(4-bromobenzenesulfonylamino)cyclopentyl]hex-5-enoic acid]	0.03	–	–
O=C(O)CCC/C=C\[C@H]1CCC[C@@H]1CNS(=O)(=O)c1ccc(Br)cc1 (relative stereo) [1 (v), (5Z)-6-[(1R, 2S*)-2-[N-(4-bromobenzenesulfonyl)aminomethyl]cyclopentan-1-yl]hex-5-enoic acid]	0.22	–	–
Cc1ccc(S(=O)(=O)N[C@H]2[C@H]3CC[C@H](C3)[C@@H]2C/C=C\CCCC(=O)O)cc1 [The compared compound, reference compound]	–	205	36
O=C(O)CCC/C=C\[C@H]1C[C@@H]2CC[C@H]1[C@@H](NS(=O)(=O)c1ccc(Br)cc1)C2 (relative stereo) [1 (a), (5Z)-6-[(1R*, 2R*, 4S*, 6S*)-6-(4-bromobenzenesulfonylamino)bicyclo[2.2.2]octan-2-yl]hex-5-enoic acid]	0.66	–	–
Cc1ccc(S(=O)(=O)NC[C@H]2[C@H]3CC[C@H](C3)[C@@H]2/C=C\CCCC(=O)O)cc1 (relative stereo) [1 (p), (5Z)-6-[(1R*, 2R*, 3S*, 4S*)-3-[N-tosylaminomethyl]bicyclo[2.2.1]heptan-2-yl]hex-5-enoic acid]	0.09	–	–
O=C(O)CCC/C=C\[C@H]1[C@@H]2CC[C@@H](C2)[C@@H]1CNS(=O)(=O)c1ccccc1 [1 (q), (5Z)-6-[(1R, 2R, 3S, 4S)-3-(N-benzenesulfonylaminomethyl)bicyclo[2.2.1]heptan-2-yl]hex-5-enoic acid]	1.67	–	–
O=C(O)CCC/C=C\[C@@H]1[C@H]2CC[C@H](C2)[C@H]1CNS(=O)(=O)c1ccc(Br)cc1 [1 (y), (5Z)-6-[(1S, 2S, 3R, 4R)-3-[N-(4-bromobenzenesulfonyl)aminomethyl]bicyclo[2.2.1]heptan-2-yl]hex-5-enoic acid]	0.01	–	–
NC(=O)CCC/C=C\[C@@H]1[C@H]2CC[C@H](C2)[C@H]1CNS(=O)(=O)c1ccc(Br)cc1 [6 (d), (5Z)-6-[(1S, 2S, 3R, 4R)-3[N-(4-bromobenzenesulfonyl)aminomethyl]bicyclo[2.2.1]heptan-2-yl]hex-5-enamide]	–	> 240	6
Cc1ccc(S(=O)(=O)N[C@H]2[C@H]3CC[C@H](C3)[C@@H]2C/C=C\CCCC(=O)NC(C)C(=O)O)cc1 (stereo partly drawn) [7 (b), amide of (5Z)-7-[(1R, 2S, 3S, 4S)-3-tosylaminobicyclo[2.2.1]heptan-2-yl]hept-5-enoic acidand alanine]	–	> 290	11
CC(C)[C@@H]1CC[C@@H](C)C[C@H]1OC(=O)CCC/C=C\[C@@H]1[C@H]2CC[C@H](C2)[C@H]1CNS(=O)(=O)c1ccc(Br)cc1 [5 (h), menthyl(5Z)-6-[(1S, 2S, 3R, 4R)-3-[N-(4-bromobenzenesulfonyl)aminomethyl]bicyclo[2.2.1]heptan-2-yl]hex-5-enoate]	–	> 300	1
Cc1ccc(S(=O)(=O)NCC2C3CCC(C3)C2C=CCCCC(=O)O)cc1 [1 (s), (5Z)-6-[(1S, *2S*, 3S*, 4R*)-3-[N-tosylaminomethyl]bicyclo[2.2.1]heptan-2-yl]hex-5-enoic acid]	0.52	–	–
CCCCCCCCOC(=O)CCC/C=C\[C@@H]1[C@H]2CC[C@H](C2)[C@H]1CNS(=O)(=O)c1ccc(Br)cc1 [5 (g), octyl(5Z)-6-[(1S, 2S, 3R, 4R)-3-[N-(4-bromobenzenesulfonyl)aminomethyl]bicyclo[2.2.1]heptan-2-yl]hex-5-enoate]	–	> 300	1
Cc1ccc(S(=O)(=O)NC[C@@H]2[C@@H]3CC[C@@H](C3)[C@H]2/C=C\CCCC(=O)O)cc1 [1 (x), (5Z)-6-[(1S, 2S, 3R, 4R)-3-[N-tosyl-aminomethyl]bicyclo[2.2.1]heptan-2-yl]hex-5-enoic acid]	0.05	–	–
Cc1ccc(S(=O)(=O)N[C@H]2[C@H]3CC[C@H](C3)[C@@H]2C/C=C\CCCC(=O)NCC(=O)O)cc1 [Example 7, Amide of (5Z)-7-[(1R, 2S, 3S, 4S)-3-tosylaminobicyclo [2.2.1]heptan-2-yl]hept-5-enoic acid and glycine]	–	> 270	9

Reference: patent US5168101A, “Sulfonamide derivatives” (Ono Pharmaceutical Co., Ltd., priority 1987, dated 1992)
